According to article PMC9014412 (Journal of medicinal chemistry, 2022):
Like-named read-outs stand apart in the source and are kept apart here.

Experiments:
HCT116 cells [1] = assay: CellTiter-Glo 2.0 cell viability assay; assay type: cell-based, human; conditions: Homo sapiens, HCT-116, 48 h, 48 h
Procedure: CellTiter-Glo 2.0 Reagent (Promega UK Ltd, G9242) was equilibrated to room temperature and added to the wells in a ratio of 1 volume reagent:5 volumes medium. Background luminescence was determined using medium alone plus reagent. The plates were shaken on an orbital shaker for 2 min to induce cell lysis and then incubated in the dark at room temperature for 10 min to stabilize the luminescent signal. Luminescence was captured on a CLARIOstar plate reader (BMG Labtech Ltd, UK) at 22 °C to give relative luminescence units and analyzed using BMG Labtech software. EC50 values were calculated by nonlinear regression (Hill plot) and log (inhibitor) versus response—variable slopes (four parameters) using GraphPad Prism 9 software. Each compound dose response was repeated as four independent biological replicates (n = 4).

HCT116 cells [2] = assay: RNA-seq differential gene expression; assay type: cell-based, human; conditions: 10 μM, 24 h, p-adjusted < 0.01, log2 fold change > 1
Procedure: RNA-seq analysis was performed in HCT116 cells treated with PROTACs (JPS004, JPS014, JPS016, JPS035, and JPS036) for 24 h at 10 μM concentration. Total RNA was isolated using a Tri-reagent RNA miniprep kit (Zymogen; R2053), before RNA integrity, size, and purity were assessed using an Agilent Bioanalyzer. Library preparation and sequencing were performed by Novogene, using a NovaSeq 6000 PE150 platform at a read depth of 20 million. For bioinformatics analysis, see the Supporting Information. RNA-seq data from the study was deposited at the GEO database (GSE197985).
3. Apoptosis Flow Cytometry Assay
Figure S9. Apoptosis flow cytometry assay with 2.5 µM and 10 µM treatments of JPS016 and JPS016NC at 24 and 48 hours. Error bars represent the average of three independent biological replicates.
µM µM µM 5 µM µM µM µM µM µM µM
4. RNA Seq – Bioinformatics Analysis
Paired-end reads were aligned using HISAT2 (v2.2.1) and mapped to the HISAT2 GRCh38_tran index build.3 Quality control was performed on raw and aligned data using FASTQC (v0.11.9) and summarised using MultiQC (v1.11).4,5 The resulting SAM files were subsequently sorted and converted to the BAM format before indexing with SAMtools (v 1.12).6 Reads were then counted across the exons of each gene and gene loci annotated using command-line program LiBiNorm (v2.4); run in HT-Seq compatibility mode (-z) and provided with the ‘Homosapiens.GRCh38.104’ GTF file obtained from Ensembl. LiBiNorm was run using the following parameters: LiBiNorm count -z -r pos -i gene_name -s reverse <BAM file> Homo_sapiens.GRCh38.104.gtf <OUTPUT file>.7 Default normalisation of expression values and differential gene analysis was then carried out using the R package DESeq2.8 Significance thresholds were set as a p-adjusted value < 0.01 and a fold change > 2 (log2 fold change > 1) and implemented for down-stream analysis, with all plots produced in R. Gene ontology (GO) analysis was carried out using the Bioconductor package topGO using the human genome-wide annotation package to map gene identifiers to the relevant org.Hs.eg.db […]

H3K56ac = assay: Histone H3 Lys 56 acetylation (H3K56ac) western blotting; assay type: cell-based, human; conditions: HCT116 cells, 24 h, screen at 0.1, 1, 10 μM; relative to DMSO, CI-994 and 1 at 10 μM
Source text: (§1) Supporting Information: Biology
(§2) Representative blots of two independent biological replicates.

LSD1 = LSD1 protein levels by western blotting; assay type: cell-based, human; conditions: HCT116 cells, after 48 h
Procedure: as §1, §2
(§3) Figure S6. Representative Western blot of HDAC1/2/3 levels after 24 hours and 48 hours with 1
(§4) (JPS004), 7 (JPS014) and 9 (JPS016), and bar graph representation of HDAC1-3, LSD1 and Sin3a
(§5) protein levels after 24 hours and 48 hours as the average of three independent biological replicates.
(§6) (also on this page, place not known: HDAC1 24hHDAC2 24hHDAC3 24hHDAC1 48hHDAC2 48hHDAC3 %Protein Levels Remaining (Relative to DMSO) %Protein Levels Remaining (Relative to DMSO))

SIN3A = SIN3A protein levels by western blotting; assay type: cell-based, human; conditions: HCT116 cells, 10 μM, after 24 h
Procedure: as §1, §2, §3, §4, §5, §6

HCT116 cells [3] = assay: Apoptosis flow cytometry assay (sub-G1 population); assay type: cell-based, human; conditions: 10 μM
Procedure: HCT116 cells were seeded (5 × 10^5 cells/plate) into 6 cm tissue culture plates for 24 h and then treated with 10 μM compounds (with 0.1% DMSO vehicle) or 0.1% DMSO control in fresh medium (5 mL total). The cells were then exposed to the compounds (10 μM) for 24 or 48 h. To harvest the cells, the medium was transferred from each sample plate to 15 mL centrifuge tubes. Each well was washed with 1 mL of phosphate-buffered saline (PBS) and the PBS was transferred to the corresponding 15 mL centrifuge tube. The plates were trypsinized, 2 mL of medium was added, and the cells and medium were transferred to the corresponding 15 mL centrifuge tubes. The harvested cells were pelleted by centrifugation (200g, 5 min, 4 °C), washed with 1 mL PBS, and then pelleted again by centrifugation (200g, 5 min, 4 °C). The supernatant was discarded, and the pellets resuspended in 1 mL of 70% ethanol (ice-cold) to fix the cells. Samples were stored at 4 °C and analyzed within two weeks. PBS (1 mL) was added to each sample tube containing cells fixed in 70% ethanol. The cells were pelleted by centrifugation (200g, 5 min, 4 °C), and the PBS wash was repeated. The supernatant was discarded, and the pellet was resuspended in 50 μL of RNase A (1 μg/mL, Thermo Scientific, EN0531) and left at room temperature for 10 min to digest contaminating RNA. A total of 500 μL of PI stain (50 μg/mL, Invitrogen, P3566) was added to each tube, and the tubes were incubated in the dark, at room temperature, for 30 min. Results were acquired on a BD FACSCanto II flow cytometer and analyzed using BD FACSdiva software. Sub-G1 population was calculated as a percentage of total cell population. Two independent biological replicates were performed.

HDAC2 = HDAC2 (Homo sapiens, UniProt Q92769); assay: HDAC2 degradation by quantitative western blotting in HCT116 cells; set-up: Dmax: dose or concentration left out as unconfirmed
Sequence of HDAC2 (Q92769 whole entry): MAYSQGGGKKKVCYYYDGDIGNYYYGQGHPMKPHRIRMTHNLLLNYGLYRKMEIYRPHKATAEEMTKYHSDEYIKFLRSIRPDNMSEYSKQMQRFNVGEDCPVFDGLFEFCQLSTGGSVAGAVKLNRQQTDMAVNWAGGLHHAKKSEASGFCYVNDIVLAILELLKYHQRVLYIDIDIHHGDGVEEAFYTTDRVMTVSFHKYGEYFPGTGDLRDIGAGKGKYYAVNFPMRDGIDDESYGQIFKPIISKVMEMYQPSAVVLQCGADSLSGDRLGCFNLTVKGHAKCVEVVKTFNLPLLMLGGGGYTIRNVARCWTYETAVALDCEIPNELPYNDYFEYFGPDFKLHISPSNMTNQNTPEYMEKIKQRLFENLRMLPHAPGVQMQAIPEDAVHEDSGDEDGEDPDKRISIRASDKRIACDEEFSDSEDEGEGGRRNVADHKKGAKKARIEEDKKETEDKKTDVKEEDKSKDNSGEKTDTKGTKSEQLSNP
Procedure: Initially, each PROTAC was tested at 0.1, 1, and 10 μM in HCT116 cells for 24 h; then, cell extracts were prepared and evaluated for HDAC1/2 and 3 degradation by quantitative western blotting.
This cell line was incubated at 37 °C with 5% CO2.
HCT116 cells were seeded into 6-well plates (4 × 10^5 cells/well for 24 h, 2 × 10^5 cells/well for 48 h) for 24 h and then treated with DMSO or compounds at the indicated concentrations in fresh medium (5 mL total). After desired treatment time, the cells were harvested and then lysed in lysis buffer (50 mM Tris-HCl, 150 mM NaCl, 0.5% NP-40, 0.5% Triton X-100) supplemented with a protease inhibitor (Sigma, P8340). The suspension was incubated on ice for 30 min and centrifuged (18,000 rcf, 15 min, 4 °C); then, the supernatant was collected, and protein concentrations were quantified via Bradford Assay using Protein Assay Dye Reagent Concentrate (BIO-RAD). […] PageRuler Plus Prestained Ladder was used for size standards. After gel electrophoresis at 140 V for 90 min, the separated proteins were transferred onto a nitrocellulose membrane at 30 V for 60 min. The membranes were probed with primary antibodies (see the Supporting Information) for 60−90 min. Blots were developed with complimentary IRDye-conjugated secondary antibodies, and the bands were visualized using an Odyssey infrared imaging system. Image processing and band intensity quantification were performed using Image Studio Lite.

Compound: Cc1ncsc1-c1ccc(CNC(=O)[C@@H]2C[C@@H](O)CN2C(=O)[C@@H](NC(=O)COCCCCCCCCCOCC(=O)Nc2ccc(C(=O)Nc3ccccc3N)cc2)C(C)(C)C)cc1 [Compound 9, (2S,4R)-1-((S)-2-(2-((9-(2-((4-((2-Aminophenyl)carbamoyl)-phenyl)amino)-2-oxoethoxy)nonyl)oxy)acetamido)-3,3-dimethylbutanoyl)-4-hydroxy-N-(4-(4-methylthiazol-5-yl)benzyl)-pyrrolidine-2-carboxamide]
- EC50 (HCT116 cells [1]): 5.2 ± 0.6 µM
- Number of downregulated DEGs (HCT116 cells [2]): 1477
- Number of upregulated DEGs (HCT116 cells [2]): 2464
- H3K56ac levels (in words) (H3K56ac): increased H3K56ac levels to the same levels as CI-994
- LSD1 levels (LSD1): approximately 40 % of controls
- SIN3A levels (abundance) (SIN3A): 60 % abundance
- Percentage of cells in sub-G1 phase (in words) (HCT116 cells [3]; after 24 h): highest percentage of cells in the sub-G1 phase
- Percentage of cells in sub-G1 phase (in words) (HCT116 cells [3]; after 48 h): highest percentage of cells in the sub-G1 phase
- HDAC2 degradation in initial screen (in words) (HDAC2; HCT116 cells, 24 h, 0.1, 1 and 10 μM, compared with 1 at 10 μM): marginally increased compared to 1 at 10 μM
- Dmax (HDAC2; HCT-116, read-out: Dmax HDAC2): 45%
- Dmax (HDAC2; HCT-116, read-out: Dmax HDAC2 in time course): 51%
